Measured values taken from patent publication US12466854B2, “Peptide useful for the transport of molecules through cell barriers” (UNIVERSITÉ GRENOBLE ALPES, priority 2022, dated 2025).

Tested on: mice
Assay: body temperature of mice after intravenous injection of peptides (hypothermia as reporter for crossing the BBB)
Assay type: in vivo
Conditions: 2.5 mmol/kg intravenously; for hypothermia (variation in body temperature): monitored over 90 minutes
Experimental: Body temperature was monitored using Anipill® capsules previously implanted intraperitoneally.
The monitoring was carried out over 90 minutes.

| Substance | time following injection at which hypothermia was observed | hypothermia (variation in body temperature) |
| --- | --- | --- |
| TAT-NT: reference cell penetration peptide TAT fused to neurotensin, GRKKRRQRRRPQRRPYIL (SEQ ID NO: 8), positive control [reference compound] | 30 min | approximately 1 degree Celsius |
| TB peptide: cell penetrating peptide of amino acid sequence RQRIWFQNRRRSRKIKK (SEQ ID NO: 1) | – | no signs of hypothermia |
| TB-NT: TB peptide fused to neurotensin, sequence RQRIWFQNRRRSRKIKKRRPYIL (SEQ ID NO: 7) | 35 min | approximately 3 degree Celsius |
